Experimental data: US20230167094A1, “H4 ANTAGONIST COMPOUNDS” (Heptares Therapeutics Limited, priority 2020, published 2023)

What was measured:
[1] = target: T1, human H4 receptor (Homo sapiens, UniProt Q9H3N8); assay: H4 Antagonist Functional Dynamic Mass Redistribution Assay; format: cell-based; details: HEKf cells expressing human H4 receptor; antagonist mode vs histamine EC80; pKb by Cheng-Prusoff; read-out: Human H4 DMR fpKb (converted)
T1 construct: expressed in transfected cells; host or cells: HEKf cells infected with baculovirus
Experimental: H4 Antagonist Functional Dynamic Mass Redistribution Assay
HEKf cells were infected using baculovirus expressing the human H4 receptor, plated into fibronectin-coated EPIC plates at a density of 10,000 cells/well and incubated overnight at 37° C. The medium on cells was changed to […] HBSS with 20 mM HEPES per well and 30 nL DMSO were added per well by LabCyte ECHO acoustic dispensing. Following 2 h equilibration at room temperature, 30 nL of H4 ligands prepared in DMSO were stamped by LabCyte ECHO acoustic dispensing into seeded EPIC plates and cellular dynamic mass redistribution was monitored using a Corning EPIC plate reader. Following 45 min measurement, 30 nL/well of histamine EC80 was added and monitored to obtain antagonist assay data. Maximum baseline-corrected responses in pm were used to generate concentration response curves. EC50 values were generated using a 4-parameter logistical fit equation to quantify agonist potencies. Functional antagonist affinity values were generated using the Cheng-Prusoff equation to calculate a pKb value using the antagonist assay data.

[2] = target: hERG (Homo sapiens, UniProt Q12809); assay: hERG assay (QPatch automated patch clamp, CHO cells); format: cell-based; details: CHO cells stably expressing hERG; 1, 3, 10 and 30 μM; tail current; room temperature; read-out: hERG pIC50 (converted)
Experimental: All experiments were performed on the QPatch automated patch clamp platform.
Series resistance (4-15 MΩ) was compensated by >80%.

Chain of hERG (Q12809 whole entry): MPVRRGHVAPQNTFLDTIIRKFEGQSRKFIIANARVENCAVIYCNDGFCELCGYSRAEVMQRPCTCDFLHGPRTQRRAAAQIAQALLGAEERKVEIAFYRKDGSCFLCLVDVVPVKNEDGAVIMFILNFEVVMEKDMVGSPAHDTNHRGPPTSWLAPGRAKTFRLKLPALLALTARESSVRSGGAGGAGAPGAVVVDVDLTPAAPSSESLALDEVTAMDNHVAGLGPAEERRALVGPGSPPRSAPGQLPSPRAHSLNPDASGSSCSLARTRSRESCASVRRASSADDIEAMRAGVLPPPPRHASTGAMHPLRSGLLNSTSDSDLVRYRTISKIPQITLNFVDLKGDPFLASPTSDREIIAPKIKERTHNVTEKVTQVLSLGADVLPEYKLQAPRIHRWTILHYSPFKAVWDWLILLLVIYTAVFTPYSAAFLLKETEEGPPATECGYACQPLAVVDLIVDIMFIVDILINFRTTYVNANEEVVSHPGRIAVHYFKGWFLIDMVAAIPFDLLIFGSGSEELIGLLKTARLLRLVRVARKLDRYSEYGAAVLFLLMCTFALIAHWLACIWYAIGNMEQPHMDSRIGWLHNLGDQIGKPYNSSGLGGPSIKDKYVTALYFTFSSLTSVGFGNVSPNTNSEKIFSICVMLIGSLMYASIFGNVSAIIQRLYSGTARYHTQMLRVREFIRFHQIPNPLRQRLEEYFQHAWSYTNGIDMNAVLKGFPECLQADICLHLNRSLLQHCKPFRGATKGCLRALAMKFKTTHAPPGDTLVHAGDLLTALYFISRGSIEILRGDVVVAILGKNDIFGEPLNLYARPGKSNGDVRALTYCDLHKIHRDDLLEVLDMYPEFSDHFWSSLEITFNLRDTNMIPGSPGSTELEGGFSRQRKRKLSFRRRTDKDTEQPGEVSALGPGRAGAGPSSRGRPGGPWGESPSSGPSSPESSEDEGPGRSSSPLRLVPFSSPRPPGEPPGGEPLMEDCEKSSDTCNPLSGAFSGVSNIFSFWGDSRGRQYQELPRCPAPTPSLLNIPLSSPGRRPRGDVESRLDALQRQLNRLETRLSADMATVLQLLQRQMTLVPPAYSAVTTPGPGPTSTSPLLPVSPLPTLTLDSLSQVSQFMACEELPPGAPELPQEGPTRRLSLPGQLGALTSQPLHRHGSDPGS

Kb [1]	Compound	IC50 [2]
0.00126 µM	CNC1CN(c2cc(-c3cnn(C(F)F)c3)nc(N)n2)C1 [Example 1, 4-(1-(Difluoromethyl)-1H-pyrazol-4-yl)-6-(3-(methylamino)azetidin-1-yl)pyrimidin-2-amine]	> 100 µM
0.0158 µM	CNC1CN(c2cc(-c3cnn(CC(F)(F)F)c3)nc(N)n2)C1 [Example 2, 4-(3-(Methylamino)azetidin-1-yl)-6-(1-(2,2,2-trifluoroethyl)-1H-pyrazol-4-yl)pyrimidin-2-amine]	> 100 µM
0.00398 µM	CCn1cc(-c2cc(N3CC(NC)C3)nc(N)n2)cn1 [Example 3, 4-(1-Ethyl-1H-pyrazol-4-yl)-6-(3-(methylamino)azetidin-1-yl)pyrimidin-2-amine]	> 100 µM
0.00251 µM	CNC1CN(c2cc(-c3cn(C(F)F)nc3C)nc(N)n2)C1 [Example 4, 4-(1-(Difluoromethyl)-3-methyl-1H-pyrazol-4-yl)-6-(3-(methylamino)azetidin-1-yl)pyrimidin-2-amine]	> 100 µM
0.00398 µM	CN[C@@H]1CCN(c2cc(-c3cnn(C)c3Cl)nc(N)n2)C1 [Example 5, (R)-4-(5-Chloro-1-methyl-1H-pyrazol-4-yl)-6-(3-(methylamino)pyrrolidin-1-yl)pyrimidin-2-amine]	> 100 µM
0.0126 µM	Nc1nc(-c2cnn(C(F)(F)F)c2)cc(N2CC(N)C2)n1 [Example 6, 4-(3-Aminoazetidin-1-yl)-6-(1-(trifluoromethyl)-1H-pyrazol-4-yl)pyrimidin-2-amine]	> 100 µM
0.00794 µM	CCNC1CN(c2cc(-c3cnn(C(F)(F)F)c3)nc(N)n2)C1 [Example 7, 4-(3-(Ethylamino)azetidin-1-yl)-6-(1-(trifluoromethyl)-1H-pyrazol-4-yl)pyrimidin-2-amine]	42.7 µM
0.00794 µM	CNC1CN(c2cc(-c3nn(C)cc3C)nc(N)n2)C1 [Example 8, 4-(1,4-Dimethyl-1H-pyrazol-3-yl)-6-(3-(methylamino)azetidin-1-yl)pyrimidin-2-amine]	23.4 µM
0.0126 µM	CNC1CN(c2cc(-c3cnn(CC(F)F)c3)nc(N)n2)C1 [Example 9, 4-(1-(2,2-Difluoroethyl)-1H-pyrazol-4-yl)-6-(3-(methylamino)azetidin-1-yl)pyrimidin-2-amine]	> 100 µM
0.00501 µM	CNC1CN(c2cc(-c3cnn(CCF)c3)nc(N)n2)C1 [Example 10, 4-(1-(2-Fluoroethyl)-1H-pyrazol-4-yl)-6-(3-(methylamino)azetidin-1-yl)pyrimidin-2-amine]	> 100 µM
0.01 µM	CNC1CN(c2cc(-c3cn(C(C)C)nc3C)nc(N)n2)C1 [Example 11, 4-(1-Isopropyl-3-methyl-1H-pyrazol-4-yl)-6-(3-(methylamino)azetidin-1-yl)pyrimidin-2-amine]	> 100 µM
0.00794 µM	CNC1CN(c2cc(-c3cnn(CC(F)(F)F)c3C)nc(N)n2)C1 [Example 12, 4-(5-Methyl-1-(2,2,2-trifluoroethyl)-1H-pyrazol-4-yl)-6-(3-(methylamino)azetidin-1-yl)pyrimidin-2-amine]	38.9 µM
0.01 µM	CCn1cc(-c2cc(N3CC(NC)C3)nc(N)n2)c(C)n1 [Example 13, 4-(1-Ethyl-3-methyl-1H-pyrazol-4-yl)-6-(3-(methylamino)azetidin-1-yl)pyrimidin-2-amine]	> 100 µM
0.1 µM	CCn1cc(-c2cc(N3CC[C@@H](NC)C3)nc(N)n2)c(C)n1 [Example 14, (R)-4-(1-Ethyl-3-methyl-1H-pyrazol-4-yl)-6-(3-(methylamino)pyrrolidin-1-yl)pyrimidin-2-amine]	28.8 µM
0.00794 µM	CNC1CN(c2cc(-c3cnn(C)c3Cl)nc(N)n2)C1 [Example 15, 4-(5-Chloro-1-methyl-1H-pyrazol-4-yl)-6-(3-(methylamino)azetidin-1-yl)pyrimidin-2-amine]	> 100 µM
0.002 µM	CNC1CN(c2cc(-c3cnn(C(F)F)c3C)nc(N)n2)C1 [Example 16, 4-(1-(Difluoromethyl)-5-methyl-1H-pyrazol-4-yl)-6-(3-(methylamino)azetidin-1-yl)pyrimidin-2-amine]	> 100 µM
0.001 µM	CNC1CN(c2cc(-c3n[nH]c(C(F)(F)F)c3C)nc(N)n2)C1 [Example 17, 4-(4-Methyl-5-(trifluoromethyl)-1H-pyrazol-3-yl)-6-(3-(methylamino)azetidin-1-yl)pyrimidin-2-amine]	> 100 µM
0.00794 µM	CNC1CN(c2cc(-c3cn(C)nc3C)nc(N)n2)C1 [Example 18, 4-(1,3-Dimethyl-1H-pyrazol-4-yl)-6-(3-(methylamino)azetidin-1-yl)pyrimidin-2-amine]	> 100 µM

Kb [1]	Compound	IC50 [2]
0.0501 µM	CNC1CN(c2cc(-c3cn(CC(F)(F)F)nc3C)nc(N)n2)C1 [Example 19, 4-(3-Methyl-1-(2,2,2-trifluoroethyl)-1H-pyrazol-4-yl)-6-(3-(methylamino)azetidin-1-yl)pyrimidin-2-amine]	> 31.6 µM
0.00251 µM	CCn1ncc(-c2cc(N3CC(NC)C3)nc(N)n2)c1C [Example 21, 4-(1-Ethyl-5-methyl-1H-pyrazol-4-yl)-6-(3-(methylamino)azetidin-1-yl)pyrimidin-2-amine]	> 100 µM
0.00794 µM	CNC1CN(c2cc(-c3cnn(C(C)C)c3C)nc(N)n2)C1 [Example 22, 4-(1-Isopropyl-5-methyl-1H-pyrazol-4-yl)-6-(3-(methylamino)azetidin-1-yl)pyrimidin-2-amine]	> 100 µM
0.126 µM	CNC1CN(c2cc(-c3cc(C)nn3C)nc(N)n2)C1 [Example 24, 4-(1,3-Dimethyl-1H-pyrazol-5-yl)-6-(3-(methylamino)azetidin-1-yl)pyrimidin-2-amine]	> 100 µM
0.1 µM	CCc1cc(-c2cc(N3CC(NC)C3)nc(N)n2)n(C)n1 [Example 25, 4-(3-Ethyl-1-methyl-1H-pyrazol-5-yl)-6-(3-(methylamino)azetidin-1-yl)pyrimidin-2-amine]	
0.0158 µM	CNC1CN(c2cc(-c3cc(Cl)nn3C)nc(N)n2)C1 [Example 26, 4-(3-Chloro-1-methyl-1H-pyrazol-5-yl)-6-(3-(methylamino)azetidin-1-yl)pyrimidin-2-amine]	> 100 µM
0.0158 µM	CNC1CN(c2cc(-c3cc(C(F)(F)F)nn3C)nc(N)n2)C1 [Example 27, 4-(1-Methyl-3-(trifluoromethyl)-1H-pyrazol-5-yl)-6-(3-(methylamino)azetidin-1-yl)pyrimidin-2-amine]	44.7 µM
0.00158 µM	CNC1CN(c2cc(-c3cn(C)nc3Cl)nc(N)n2)C1 [Example 29, 4-(3-Chloro-1-methyl-1H-pyrazol-4-yl)-6-(3-(methylamino)azetidin-1-yl)pyrimidin-2-amine]	> 100 µM
0.00158 µM	CNC1CN(c2cc(-c3cnn(C)c3Br)nc(N)n2)C1 [Example 30, 4-(5-Bromo-1-methyl-1H-pyrazol-4-yl)-6-(3-(methylamino)azetidin-1-yl)pyrimidin-2-amine]	> 100 µM
0.00794 µM	CNC1CN(c2cc(-c3cn(C)nc3Br)nc(N)n2)C1 [Example 31, 4-(3-Bromo-1-methyl-1H-pyrazol-4-yl)-6-(3-(methylamino)azetidin-1-yl)pyrimidin-2-amine]	> 31.6 µM
0.00398 µM	CNC1CN(c2cc(-c3cc(C)[nH]n3)nc(N)n2)C1 [Example 35, 4-(5-Methyl-1H-pyrazol-3-yl)-6-(3-(methylamino)azetidin-1-yl)pyrimidin-2-amine]	> 31.6 µM
0.0316 µM	CNC1CN(c2cc(-c3c[nH]nc3C(F)(F)F)nc(N)n2)C1 [Example 37, 4-(3-(Methylamino)azetidin-1-yl)-6-(3-(trifluoromethyl)-1H-pyrazol-4-yl)pyrimidin-2-amine]	> 31.6 µM
0.00501 µM	CNC1CN(c2cc(-c3cn[nH]c3)nc(N)n2)C1 [Example 38, 4-(3-(Methylamino)azetidin-1-yl)-6-(1H-pyrazol-4-yl)pyrimidin-2-amine]	> 31.6 µM
0.00398 µM	CNC1CN(c2cc(-c3c[nH]nc3C)nc(N)n2)C1 [Example 39, 4-(3-Methyl-1H-pyrazol-4-yl)-6-(3-(methylamino)azetidin-1-yl)pyrimidin-2-amine]	> 31.6 µM
	CCc1[nH]nc(-c2cc(N3CC(NC)C3)nc(N)n2)c1C [Example 40, 4-(5-Ethyl-4-methyl-1H-pyrazol-3-yl)-6-(3-(methylamino)azetidin-1-yl)pyrimidin-2-amine]	> 31.6 µM
0.00794 µM	CCc1cc(-c2cc(N3CC(NC)C3)nc(N)n2)n[nH]1 [Example 41, 4-(5-Ethyl-1H-pyrazol-3-yl)-6-(3-(methylamino)azetidin-1-yl)pyrimidin-2-amine]	> 31.6 µM
0.00631 µM	CNC1CN(c2cc(-c3[nH]nc(Cl)c3Cl)nc(N)n2)C1 [Example 42, 4-(4,5-Dichloro-1H-pyrazol-3-yl)-6-(3-(methylamino)azetidin-1-yl)pyrimidin-2-amine]	> 100 µM
	CN1CCN(C(=O)c2cc3cc(Cl)ccc3[nH]2)CC1 [JNJ-7777120, reference compound]	≥ 100 µM
